From patent US10760052B2, “Method of inhibiting tau phosphorylation” (priority 2012, dated 2020)
Like-named read-outs stand apart in the source and are kept apart here.

Biological target: T1, mu opiate receptor (MOR) (Rattus norvegicus, UniProt P33535)
T1 construct: from tissue; host or cells: striatum (membrane preparation)
Format: biochemical
Settings: for [35S]GTPγS binding, FLNA-Binding Compound as Agonist at 0.1 μM: 0.1 μM compound; for [35S]GTPγS binding, FLNA-Binding Compound as Agonist at 0.1 μM / [35S]GTPγS binding, FLNA-Binding Compound as Agonist at 1 μM: striatal membranes; for [35S]GTPγS binding, FLNA-Binding Compound as Agonist at 0.1 μM / [35S]GTPγS binding, FLNA-Binding Compound as Agonist at 1 μM + BFNA / [35S]GTPγS binding, FLNA-Binding Compound as Agonist at 1 μM: Series C-2; for [35S]GTPγS binding, FLNA-Binding Compound as Agonist at 1 μM + BFNA: 1 μM compound + 1 μM β-FNA (selective MOR antagonist); for [35S]GTPγS binding, FLNA-Binding Compound as Agonist at 1 μM: 1 μM compound; for MOR agonist activity ([35S]GTPγS binding), compound as agonist: preliminary study, average of two runs

[1] = [35S]GTPγS binding to Gαo in striatal membranes, compound 0.1 μM
[2] = [35S]GTPγS binding to Gαo in striatal membranes, compound 1 μM
[3] = [35S]GTPγS binding to Gαo in striatal membranes, compound 1 μM plus 1 μM β-funaltrexamine (MOR antagonist)

T1 sequence (P33535 whole entry): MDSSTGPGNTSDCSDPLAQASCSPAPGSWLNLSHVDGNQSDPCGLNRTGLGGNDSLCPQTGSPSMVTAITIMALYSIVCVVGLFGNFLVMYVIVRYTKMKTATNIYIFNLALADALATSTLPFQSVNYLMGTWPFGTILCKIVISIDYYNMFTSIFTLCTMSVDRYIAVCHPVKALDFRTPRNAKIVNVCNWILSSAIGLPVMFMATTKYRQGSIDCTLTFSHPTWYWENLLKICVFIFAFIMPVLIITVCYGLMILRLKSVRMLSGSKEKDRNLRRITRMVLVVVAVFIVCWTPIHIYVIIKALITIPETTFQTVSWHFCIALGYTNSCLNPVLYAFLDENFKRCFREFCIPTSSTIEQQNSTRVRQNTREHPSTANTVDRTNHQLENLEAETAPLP

SMILES	% DAMGO (0.1 μM) [%]	% DAMGO (1 μM) [%]	% DAMGO + BFNA [%]	Concentration of FLNA-Binding Compound as Agonist 0.1 μM [1] [%]	Concentration of FLNA-Binding Compound as Agonist 1 μM [2] [%]	Concentration of FLNA-Binding Compound as Agonist 1 μM + BFNA [3] [%]	[35S]GTPγS binding, FLNA-Binding Compound as Agonist at 0.1 μM [%]	[35S]GTPγS binding, FLNA-Binding Compound as Agonist at 1 μM + BFNA [%]	[35S]GTPγS binding, FLNA-Binding Compound as Agonist at 1 μM [%]	MOR agonist activity ([35S]GTPγS binding), compound as agonist (0.1 μM) [%]	MOR agonist activity ([35S]GTPγS binding), compound as agonist (1 μM + βNFA) [%]	MOR agonist activity ([35S]GTPγS binding), compound as agonist (1 μM) [%]	Concentration of FLNA-Binding Compound as Agonist 0.1 μM [%]	Concentration of FLNA-Binding Compound as Agonist 1 μM [%]	Concentration of FLNA-Binding Compound as Agonist 1 μM + BFNA [%]
COc1ccccc1C(=O)CC1c2c(cc3c(c2OC)OCO3)CC[N+]1(C)C (stereo not drawn) [Compound B0025]	96.3	86.8	211.8	159.6	234.6	137.7									
CCN1CCC2(CC1)OCCN2S(=O)(=O)c1ccc(OC)cc1 [Compound C0089M]	136.3	134.4	237.4				234.5	81.9	295.3						
COc1ccc(S(=O)(=O)N2CCOC23CCN(C(=O)OC(C)(C)C)CC3)cc1 [Compound C0043]	103.8	110.9	501.8				175.4	83.3	242.6						
CC(=O)c1ccc(S(=O)(=O)N2CCC3(CC2)NCCS3)cc1 [Compound C0060]	114.8	93.9	327.0				166.5	143.9	218.9						
Cc1ccc(S(=O)(=O)N2CCOC23CCN(CC2CC2)CC3)cc1 [Compound C0134M]										150.7	53.2	224.0			
CC(O)c1ccc(S(=O)(=O)N2CCC3(CC2)OCCN3S(=O)(=O)c2ccc(C(C)O)cc2)cc1 (stereo not drawn) [Compound C0051]	65.1	73.1	127.0	94.4	170.4	55.9									
COc1ccc(CCC(=O)CC2c3c(cc4c(c3OC)OCO4)CCN2C)cc1 (stereo not drawn) [Compound B0047]	106.3	92.6	260.1	187.8	235.6	68.4									
COc1c2c(cc3c1C(CC(=O)/C=C/c1ccc(Cl)cc1)[N+](C)(C)CC3)OCO2 (stereo not drawn) [Compound B0019]	59.7	96.0	123.3	101.0	256.5	81.4									
CC1CCC(C(C)C)C(OCC(O)CN2CCCc3ccccc32)C1 (stereo not drawn) [Compound A0068]	36.8	35.2	182.0	73.9	110.4	98.1									
CC1CN(CC(O)COc2cccc(C(F)(F)F)c2)CC(C)O1 (stereo not drawn) [Compound A0051]	148.0	140.1	286.3	290.4	386.6	211.6									
O=S(=O)(c1ccc(Br)c(C(F)(F)F)c1)N1CCC2(CC1)OCCN2S(=O)(=O)c1ccc(Br)c(C(F)(F)F)c1 [Compound C0077]	109.5	104.9	621.4	192.7	265.4	136.7									
COc1ccc(OCC(O)CN2CCc3ccccc3C2)cc1 (stereo not drawn) [Compound A0053]	46.5	47.5	46.2	78.5	118.2	15.1									
N#Cc1ccccc1S(=O)(=O)N1CCC2(CC1)OCCN2S(=O)(=O)c1ccccc1C#N [Compound C0004]	72.1	85.4	99.7	122.0	228.4	65.8									
COc1ccc(S(=O)(=O)N2CCC3(CC2)NCCC(=O)N3)cc1 [Compound C0142M]	97.8	95.2	251.1				143.7	98.7	192.5						
COc1cccc(OC)c1CC(=O)CC1c2c(cc3c(c2OC)OCO3)CC[N+]1(C)C (stereo not drawn) [Compound B0036]	39.2	52.1	199.7	61.4	120.6	65.1									
COc1c2c(cc3c1C(CC(=O)CCc1ccc(O)cc1)[N+](C)(C)CC3)OCO2 (stereo not drawn) [Compound B0028]	103.5	131.0	125.3	199.1	357.7	55.0									
OC(COc1cccc(C(F)(F)F)c1)CN1CCc2ccccc2C1 (stereo not drawn) [Compound A0054]	44.4	63.9	348.9	74.9	159.2	114.1									
CN(C)c1cccc(OCC(O)CN2CCc3ccccc3C2)c1 (stereo not drawn) [Compound A0050]	77.0	68.6	109.6	151.0	189.3	81.0									
CC1CCC(C(C)C)C(OCC(O)CN2CCSCC2)C1 (stereo not drawn) [Compound A0003]	118.3	119.9	64.5										176.8	276.0	17.1
O=S(=O)(c1ccc(C(F)(F)F)cc1Br)N1CCC2(CC1)OCCN2S(=O)(=O)c1ccc(C(F)(F)F)cc1Br [Compound C0071]	160.5	161.7	513.3	276.3	355.3	177.1									
CC1CN(CC(O)COc2cc(F)cc(F)c2)CC(C)O1 (stereo not drawn) [Compound A0046]	131.2	128.3	189.4	257.5	354.1	140.0									
COc1cc(OC)cc(C(=O)CC2c3c(cc4c(c3OC)OCO4)CC[N+]2(C)C)c1 (stereo not drawn) [Compound B0035]	109.8	93.2	142.4	188.0	248.7	74.2									
CCN(CC)CC(O)COC1CC(C)CCC1C(C)C (stereo not drawn) [Compound A0032]	115.6	93.4	180.0	226.9	257.8	133.0									
O=C(c1ccc([N+](=O)[O-])cc1)N1CCC2(CC1)OCCN2C(=O)c1ccc([N+](=O)[O-])cc1 [Compound C0032]	92.8	87.3	248.2	145.4	202.0	80.9									
CC1CCC(C(C)C)C(OCC(O)CN2CCN(CCCN3CCOCC3)CC2)C1 (stereo not drawn) [Compound A0026]	79.7	70.7	459.3	140.7	179.8	120.8									
CC1CCC(C(C)C)C(OCC(O)CN2CCCCCCC2)C1 (stereo not drawn) [Compound A0014]	83.2	67.5	214.3	147.0	174.9	140.8									
COc1ccc(OCC(O)CN2CCOc3ccccc32)cc1 (stereo not drawn) [Compound A0076]	46.4	78.6	119.4	79.8	172.6	41.2									
CC(=O)c1ccc(S(=O)(=O)N2CCOC23CCNCC3)cc1 [Compound C0046]	197.4	211.5	356.4				286.2	156.8	492.9						
